Results: ChEMBL document CHEMBL5303573, “Mapping human microbiome drug metabolism by gut bacteria and their genes” (Nature, 2019)

Columns and labels:
[1] = The drug is tested on Ruminococcus lactaris strain: ATCC29176 for biotransformation. The drug concentrations were measured before and after a 12-h incubation by liquid-chromatography-coupled mass spectrometry (LC–MS); conditions: 2 µM
[2] = bacteroides thetaiotaomicron, 12 h, 2 µM
Description: The drug is tested on Bacteroides thetaiotaomicron strain: 3731 for biotransformation. The drug concentrations were measured before and after a 12-h incubation by liquid-chromatography-coupled mass spectrometry (LC–MS)

[3] = bacteroides fragilis, 12 h, 2 µM
Description: The drug is tested on Bacteroides fragilis strain: 3397 (T10) for biotransformation. The drug concentrations were measured before and after a 12-h incubation by liquid-chromatography-coupled mass spectrometry (LC–MS)

[4] = The drug is tested on Bacteroides vulgatus strain: ATCC8482 for biotransformation. The drug concentrations were measured before and after a 12-h incubation by liquid-chromatography-coupled mass spectrometry (LC–MS); conditions: phocaeicola vulgatus, 2 µM
[5] = The drug is tested on Bacteroides cellulosilyticus strain: DSM14838 for biotransformation. The drug concentrations were measured before and after a 12-h incubation by liquid-chromatography-coupled mass spectrometry (LC–MS); conditions: 2 µM
[6] = The drug is tested on Eubacterium ventriosum strain: ATCC27560 for biotransformation. The drug concentrations were measured before and after a 12-h incubation by liquid-chromatography-coupled mass spectrometry (LC–MS); assay type: ADME; design: dose 2 uM, timepoint 0 vs 12 hours; conditions: 2 µM
[7] = The drug is tested on Anaerotruncus colihominis strain: DSM17241 for biotransformation. The drug concentrations were measured before and after a 12-h incubation by liquid-chromatography-coupled mass spectrometry (LC–MS); conditions: 2 µM
[8] = parabacteroides johnsonii, 12 h, 2 µM
Description: The drug is tested on Parabacteroides johnsonii strain: DSM18315 for biotransformation. The drug concentrations were measured before and after a 12-h incubation by liquid-chromatography-coupled mass spectrometry (LC–MS)

[9] = bacteroides fragilis, 12 h, 2 µM; remark: listed apart in the source
Description: The drug is tested on Bacteroides fragilis strain: DS-208 for biotransformation. The drug concentrations were measured before and after a 12-h incubation by liquid-chromatography-coupled mass spectrometry (LC–MS)

[10] = The drug is tested on Bacteroides coprophilus strain: DSM18228 for biotransformation. The drug concentrations were measured before and after a 12-h incubation by liquid-chromatography-coupled mass spectrometry (LC–MS); conditions: 2 µM
[11] = The drug is tested on Bifidobacterium breve strain: DSM20213 for biotransformation. The drug concentrations were measured before and after a 12-h incubation by liquid-chromatography-coupled mass spectrometry (LC–MS); conditions: 2 µM
[12] = The drug is tested on Clostridium scindens strain: ATCC35704 for biotransformation. The drug concentrations were measured before and after a 12-h incubation by liquid-chromatography-coupled mass spectrometry (LC–MS); conditions: 2 µM
[13] = The drug is tested on Alistipes indistinctus strain: DSM22520 for biotransformation. The drug concentrations were measured before and after a 12-h incubation by liquid-chromatography-coupled mass spectrometry (LC–MS); conditions: 2 µM
[14] = The drug is tested on Enterobacter cancerogenus strain: ATCC35316 for biotransformation. The drug concentrations were measured before and after a 12-h incubation by liquid-chromatography-coupled mass spectrometry (LC–MS); conditions: 2 µM
[15] = The drug is tested on Anaerococcus hydrogenalis strain: DSM7454 for biotransformation. The drug concentrations were measured before and after a 12-h incubation by liquid-chromatography-coupled mass spectrometry (LC–MS); conditions: 2 µM
[16] = The drug is tested on Eubacterium hallii strain: DSM3353 for biotransformation. The drug concentrations were measured before and after a 12-h incubation by liquid-chromatography-coupled mass spectrometry (LC–MS); conditions: anaerobutyricum hallii, 2 µM
[17] = parabacteroides distasonis, 12 h, 2 µM
Description: The drug is tested on Parabacteroides distasonis strain: ATCC8503 for biotransformation. The drug concentrations were measured before and after a 12-h incubation by liquid-chromatography-coupled mass spectrometry (LC–MS)

[18] = The drug is tested on Bacteroides finegoldii strain: DSM17565 for biotransformation. The drug concentrations were measured before and after a 12-h incubation by liquid-chromatography-coupled mass spectrometry (LC–MS); conditions: 2 µM
[19] = The drug is tested on Ruminococcus gnavus strain: ATCC29149 for biotransformation. The drug concentrations were measured before and after a 12-h incubation by liquid-chromatography-coupled mass spectrometry (LC–MS); conditions: mediterraneibacter gnavus, 2 µM
[20] = bacteroides stercoris, 12 h, 2 µM
Description: The drug is tested on Bacteroides stercoris strain: ATCC43183 for biotransformation. The drug concentrations were measured before and after a 12-h incubation by liquid-chromatography-coupled mass spectrometry (LC–MS)

Bacterial Biotransformation [1] | Bacterial Biotransformation [2] | Bacterial Biotransformation [3] | Bacterial Biotransformation [4] | Bacterial Biotransformation [5] | Bacterial Biotransformation [6] | Bacterial Biotransformation [7] | Bacterial Biotransformation [8] | Bacterial Biotransformation [9] | Bacterial Biotransformation [10] | Bacterial Biotransformation [11] | Bacterial Biotransformation [12] | Bacterial Biotransformation [13] | Bacterial Biotransformation [14] | Bacterial Biotransformation [15] | Bacterial Biotransformation [16] | Bacterial Biotransformation [17] | Bacterial Biotransformation [18] | Bacterial Biotransformation [19] | Bacterial Biotransformation [20] | SMILES
Compound NOT metabolized | Compound NOT metabolized | Compound NOT metabolized | Compound NOT metabolized | Compound NOT metabolized | Compound NOT metabolized | Compound NOT metabolized | Compound NOT metabolized | Compound NOT metabolized | Compound NOT metabolized | Compound NOT metabolized | Compound NOT metabolized | Compound NOT metabolized | Compound NOT metabolized | Compound NOT metabolized | Compound NOT metabolized | Compound NOT metabolized | Compound NOT metabolized | Compound NOT metabolized | Compound NOT metabolized | COc1ccccc1N1CCN(CC(O)COc2cccc3ccccc23)CC1 (stereo not given) [NAFTOPIDIL]
Compound NOT metabolized | Compound NOT metabolized | Compound NOT metabolized | Compound NOT metabolized | Compound NOT metabolized | Compound NOT metabolized | Compound NOT metabolized | Compound NOT metabolized | Compound NOT metabolized | Compound NOT metabolized | Compound NOT metabolized | Compound NOT metabolized | Compound NOT metabolized | Compound NOT metabolized | Compound NOT metabolized | Compound NOT metabolized | Compound NOT metabolized | Compound NOT metabolized | Compound NOT metabolized | Compound NOT metabolized | N#Cc1ccc(C(c2ccc(C#N)cc2)n2cncn2)cc1 [LETROZOLE]
Compound NOT metabolized | Compound metabolized | Compound metabolized | Compound metabolized | Compound NOT metabolized | Compound NOT metabolized | Compound NOT metabolized | Compound metabolized | Compound metabolized | Compound NOT metabolized | Compound NOT metabolized | Compound metabolized | Compound metabolized | Compound NOT metabolized | Compound NOT metabolized | Compound NOT metabolized | Compound metabolized | Compound NOT metabolized | Compound NOT metabolized | Compound metabolized | CC(=O)O[C@]1(C(C)=O)CC[C@H]2[C@@H]3C=C(C)C4=CC(=O)CC[C@]4(C)[C@H]3CC[C@@]21C [MEGESTROL ACETATE]
Compound metabolized | Compound NOT metabolized | Compound metabolized | Compound metabolized | Compound NOT metabolized | Compound NOT metabolized | Compound NOT metabolized | Compound NOT metabolized | Compound metabolized | Compound NOT metabolized | Compound NOT metabolized | Compound metabolized | Compound metabolized | Compound NOT metabolized | Compound NOT metabolized | Compound metabolized | Compound NOT metabolized | Compound NOT metabolized | Compound NOT metabolized | Compound NOT metabolized | COC1=C(OC)C(=O)C(CCCCCCCCCCO)=C(C)C1=O [IDEBENONE]
